From patent US20160251402A1, “MICROPEPTIDES AND USE OF SAME FOR MODULATING GENE EXPRESSION” (UNIVERSITE PAUL SABATIER TOULOUSE III, priority 2013, published 2016)

Legend:
[1] = test system: HAM1 (accession No. MtGI9-TC114268); assay: Expression of the HAM1 gene in M. truncatula (qRT-PCR); type: in vivo, Medicago truncatula
Experimental: (§1) The surface of seeds of M truncatula was sterilized and they were left to germinate on agar plates for 5 days at 4° C. in the dark. The young shoots were then grown on 12-cm square plates filled with Fahraeus medium without nitrogen and containing 7.5 μM phosphate (Lauressergues et al., Plant J., 72(3): 512-22, 2012). The lateral roots were counted every day. In pots, the plants were watered every other day with modified Long Ashton medium with low phosphorus content (Balzergue et al., Journal of Experimental Botany, (62)1049-1060, 2011).
(§2) The peptides were synthesized by Eurogentec or Smartox-Biotech. MtmiPEP171b1 was resuspended in a solution of 40% water/50% acetonitrile/10% acetic acid (v/v/v), and the other peptides were resuspended in water.
(§3) The total RNA was extracted from roots of M. truncatula or from tobacco leaves using the extraction kit RNeasy Plant Mini Kit (Qiagen). […]
(§4) The mean values of the relative expression of the genes or of the production of lateral roots were analysed using the Student test or the Kruskal-Wallis test. […]
(§5) The composite plants having roots transformed with Agrobacterium rhizogenes were obtained by the method described in Boisson-Dernier et al. (Mol Plant-Microbe Interact, 18: 1269-1276, 2005). The transformed roots were verified and selected by observations of DsRED with a binocular fluorescence magnifier. […]

[2] = test system: Medicago truncatula lateral roots; assay: Number of lateral roots in M. truncatula; type: in vivo
Experimental: as §1, with “2011). The mean values of the relative expression of the genes or of the production of lateral roots were analysed using the Student test or the Kruskal-Wallis test. The error bars represent the SEM (Standard Error of the Mean). The asterisks indicate a significant difference (p<0.05).” for “2011).”

[3] = test system: HAM2 (accession No. MtGI9-TC120850); assay: Expression of the HAM2 gene in M. truncatula (qRT-PCR); type: in vivo, Medicago truncatula
Experimental: as §1, §2, §3, §4, §5

[4] = plant in which MtmiPEP171b1 is overexpressed vs control plant
[5] = watering once daily for 5 days with peptide at 0.01, 0.1 or 1 μM vs control plant

Sequence: MLLHRLSKFCKIERDIVYIS (listed as Medicago truncatula) [MtmiPEP171b1]
- relative expression of HAM1 [1, 4]: decrease in the expression of the HAM1 and HAM2 genes
- relative expression of HAM1 [1, 5]: decrease in the expression of the HAM1 and HAM2 genes
- mean number of lateral roots [2, 4]: reduction in the number of lateral roots
- mean number of lateral roots ([2]; watering with peptide at 0.1 μM once daily for 5 days vs control plant): reduction in the number of lateral roots
- relative expression of HAM2 [3, 4]: decrease in the expression of the HAM1 and HAM2 genes
- relative expression of HAM2 [3, 5]: decrease in the expression of the HAM1 and HAM2 genes
